Assay results as given in US10905118B2, “Triscationic amphiphile compounds, compositions, and methods for making same” (James Madison Innovations, Inc., priority 2014, dated 2021).
In brackets after ≈: the same amount, converted by molar mass.

Columns and labels:
[1] = Isothermal titration calorimetry: critical aggregation concentration and thermodynamics of aggregation; format: physicochemical; details: for ΔHagg / CMC / ΔHmic: ITC; for ΔHagg / −TΔSmic / ΔGmic / CMC / ΔHmic: 37° C.; for −TΔSmic: Gibbs-Helmholtz equation; for −TΔSmic / ΔGmic: double-tailed series; for ΔGmic: approximated with RT ln(CAC/55.5); for CMC / ΔHmic: pure water, double-tailed M-P and M-1 series; for −TΔSagg term (sign, in words): Table 1
Method: Isothermal titration calorimetry (ITC) was used to determine the critical aggregation concentration (CAC) and the thermodynamic parameters at 37° C. associated with aggregate formation for each double-tailed amphiphile for the M-P and M-1 series, as shown in Table 1.
A Nano ITC was used to measure the heat change associated with the deaggregation of amphiphiles via power compensation. A concentrated aqueous solution of amphiphile (>>CAC) was titrated into a thermally controlled sample cell, initially containing pure water, in a series of discrete injections. Isothermal titration calorimetry was used to determine the critical aggregation concentration (CAC) and ΔHagg. Shown in FIG. 5 is the heat rate associated with each injection versus time for 9 (M-1,14,14). Shown in FIG. 6 is the integration of the heat per injection normalized by the number of moles of each injection versus the increasing concentration of amphiphile in the well. In FIG. 6, inset, CAC is determined by calculating the first derivative the heat curve.
During initial injections (Range I), measured heat changes are due to both the dilution of aggregates and deaggregation. This can be observed in the first 10 injections, where aggregates absorbed heat and disassociated into dissolved monomers. The heat change produced by each injection was approximately constant in this range. In Range II, injected aggregates don't fully dissociate, reducing the total absorbed heat for each subsequent injection. At concentrations well above the CAC (Range III), absorbed heat is attributed only to the dilution of aggregates and is approximately constant. […] CAC and thermodynamic data were not determined for the amphiphiles with the shortest tails [1 (M-P,8,8) and 6 (M-1,8,8)] because the heat evolved during injection was […] the threshold of the instrument.
The difference between the average heat of injections in Range I, representing the total heat due to the dilution of aggregates and deaggregation, and the average heat of injections in Range III, representing the heat due solely to the dilution of aggregates, gives the heat of deaggregation, ΔHdeagg. The ΔHdeagg for compound 9 (M-1,14,14) is 37 kJ/mol, corresponding to a heat of aggregate formation, ΔHagg, of −37 kJ/mol (ΔHagg=−ΔHdeagg).
The ΔGagg can be approximated for the aggregation of nonionic amphiphiles by the equation: ΔGagg=RT ln(CAC/55.5) (3)
where m is the concentration of counterions that associate with a aggregate and n is the number of monomers that associate to form an aggregate. […] BBA-Biomembranes. 2000, 1508, 69-85.)
The entropy of aggregation (ΔSagg) is dictated by a combination of entropic factors that favor or disfavor aggregate formation and can be approximated using the Gibbs-Helmholtz equation: ΔGagg=ΔHagg−TΔSagg (5)
CAC and ΔHagg were determined using a Nano-ITC (TA-Instruments). Prior to each experiment the sample cell was washed with dH2O (300 mL), ethanol (100 mL), dH2O (300 mL) and nanopure water (200 mL). Next, 950 μL of nanopure water was added to the sample cell. A concentrated aqueous solution (>>CAC) of amphiphile was prepared and equilibrated at 37° C. A 250 μL syringe was filled with the aqueous solution, and loaded into the Nano ITC. Multiple single injections in aliquots of 5 μL were injected into the sample cell with time intervals varying from 300 s to 1400 s. Samples were continuously stirred (300 rpm) throughout the titration. The Nano-Analyze program (TA-Instruments) was used to analyze the data. CAC and ΔHagg values reported are the average of two or more repeat experiments for each amphiphile.

[2] = test system: Bacillus cereus; test: Minimum inhibitory concentration, B. cereus; format: cell-based; details: Mueller-Hinton Broth, 37° C., 72 h
Method: (§1) The MIC values of all compounds from both double-tailed series were determined for four Gram-positive (Staphylococcus aureus, Enterococcus faecalis, Streptococcus agalactiae, and Bacillus cereus) and two Gram-negative (Escherichia coli and Pseudomonas aeruginosa) strains, which are shown in Table 3.
(§2) The Gram-positive bacterial strains used tested were Staphylococcus aureus subsp. aureus ATCC® 29213™, Enterococcus faecalis ATCC® 29212™, Bacillus cereus, and Streptococcus agalactiae J48.^58 The Gram-negative bacterial strains used were Escherichia coli ATCC® 25922™ and Pseudomonas aeruginosa ATCC® 27853™. All strains were grown in 1× Mueller-Hinton Broth at 37° C. for 12-24 h. For the MIC and combination studies, bacterial suspensions were prepared by diluting overnight cultures to 5×10^6 CFU/mL in 2× Mueller-Hinton Broth, so that when amphiphile solutions are added the final broth strength is 1×.
(§3) The methods used to determine the MIC and MBC were performed as previously described and followed the standards set forth by the Clinical and Laboratory Standards Institute (See Ladow, J. E.; Warnock, D. C.; Hamill, K. M.; Simmons, K. L.; Davis, R. W.; Schwantes, C. R.; Flaherty, D. C.; Willcox, J. A. L.; Wilson-Henjum, K.; Caran, K. L.; Minbiole, K. P. C.; Seifert, K. Bicephalic amphiphile architecture affects antibacterial activity. Eur. J. Med. Chem. 2011, 46, 4219-4226 and P. A. Wayne Methods for dilution antimicrobial tests for bacteria that grow aerobically. 2009.). Briefly, compounds were serially diluted and 100 μL of each dilution were added to the wells of a 96-well flat-bottomed microtiter plate in triplicate. After adding 100 μL of the bacterial cell suspension, the plates were incubated at 37° C. for 72 h. […] The MIC was considered to be bactericidal if the MBC was the same concentration or one concentration higher in the dilution series as the MIC, per Motyl, M.; Dorso, K.; Barrett, J.; Giacobbe, R. Basic microbiological techniques used in antibacterial drug discovery. Curr. Protoc. Pharmacol. 2006, Chapter 13.

[3] = test system: Enterococcus faecalis; test: Minimum inhibitory concentration, E. faecalis; format: cell-based, Enterococcus faecalis ATCC 29212; details: Mueller-Hinton Broth, 37° C., 72 h
Method: as §1, §2, §3

[4] = test system: Streptococcus agalactiae; test: Minimum inhibitory concentration, S. agalactiae; format: cell-based, Streptococcus agalactiae J48; details: Mueller-Hinton Broth, 37° C., 72 h
Method: as §1, §2, §3

[5] = test system: Staphylococcus aureus; test: Minimum inhibitory concentration, S. aureus; format: cell-based, Staphylococcus aureus subsp. aureus ATCC 29213; details: Mueller-Hinton Broth, 37° C., 72 h
Method: as §1, §2, §3

[6] = test system: Escherichia coli; test: Minimum inhibitory concentration, E. coli; format: cell-based, Escherichia coli ATCC 25922; details: Mueller-Hinton Broth, 37° C., 72 h
Method: as §1, §2, §3

[7] = test system: Pseudomonas aeruginosa; test: Minimum inhibitory concentration, P. aeruginosa; format: cell-based, Pseudomonas aeruginosa ATCC 27853; details: Mueller-Hinton Broth, 37° C., 72 h
Method: as §1, §2, §3

[8] = Isothermal titration calorimetry: critical aggregation concentration and thermodynamics of aggregation; format: physicochemical; details: 37° C., single-tailed M-1,1,n series; for CAC: ITC
[9] = test system: Pseudomonas aeruginosa; details: literature comparison values; cited from earlier work

Row | Structure (SMILES) | ΔHagg [1] | MIC B. cereus (G+) [2] | MIC E. faecalis (G+) [3] | MIC S. agalactiae (G+) [4] | MIC S. aureus (G+) [5] | MIC E. coli (G−) [6] | MIC P. aeruginosa (G−) [7] | ΔGagg [8] | −TΔSagg [8] | CAC [8] | −TΔSmic [1] | ΔGmic [1] | CMC [1] | ΔHmic [1] | −TΔSagg term (sign, in words) [1] | MIC against P. aeruginosa (comparison drugs) [9]
1 | CCCCCCCCCCCCCC[N+](C)(C)Cc1cc(C[N+](C)(C)C)cc(C[N+](C)(C)C)c1.[Br-].[Br-].[Br-] [Compound S4] | -2.39 kcal/mol | 16 µM | 31 µM | 16 µM | 63 µM | 250 µM | >250 µM | -4.78 kcal/mol | -2.39 kcal/mol | 21 mM |  |  |  |  |  | 
2 | CCCCCCCCCCCCCCCCCC[N+](C)(C)Cc1cc(C[N+](C)(C)C)cc(C[N+](C)(C)C)c1.[Br-].[Br-].[Br-] [Compound S6] | -5.26 kcal/mol | 4 µM | 4 µM | 2 µM | 16 µM | 16 µM | 125 µM | -5.74 kcal/mol | -0.574 kcal/mol | 5.0 mM |  |  |  |  |  | 
3 | CCCCCCCCCCCCCCCCCCCCCC[N+](C)(C)Cc1cc(C[N+](C)(C)C)cc(C[N+](C)(C)C)c1.[Br-].[Br-].[Br-] [Compound S8] | -7.89 kcal/mol | >250 µM | >250 µM | >250 µM | >250 µM | 63 µM | >250 µM | -6.69 kcal/mol | 1.22 kcal/mol | 0.99 mM |  |  |  |  |  | 
4 | CCCCCCCCCCCC[N+](C)(C)Cc1cc(C[n+]2ccccc2)cc(C[N+](C)(C)CCCCCCCCCCCC)c1.[Br-].[Br-].[Br-] [Compound 3] |  | 2 µM | 2 µM | 1 µM | 2 µM | 4 µM | 8 µM |  |  |  | 0.741 kcal/mol | -6.21 kcal/mol | 2.4 mM | -5.5 kcal/mol | negative | 
5 | CCCCCCCCCCCCCCCC[N+](C)(C)Cc1cc(C[N+](C)(C)C)cc(C[N+](C)(C)CCCCCCCCCCCCCCCC)c1.[Br-].[Br-].[Br-] [Compound 10] |  | 16 µM | 32 µM | 8 µM | 16 µM | 63 µM | >250 µM |  |  |  | -5.26 kcal/mol | -7.89 kcal/mol | 0.16 mM | -13.1 kcal/mol | positive | 
6 | CCCCCCCCCCCCCC[N+](C)(C)Cc1cc(C[n+]2ccccc2)cc(C[N+](C)(C)CCCCCCCCCCCCCC)c1.[Br-].[Br-].[Br-] [Compound 4] |  | 8 µM | 4 µM | 4 µM | 4 µM | 16 µM | 63 µM |  |  |  | -2.08 kcal/mol | -7.17 kcal/mol | 0.56 mM | -9.08 kcal/mol | positive | 
7 | CCCCCCCCCCCCCCCCCCCC[N+](C)(C)Cc1cc(C[N+](C)(C)C)cc(C[N+](C)(C)C)c1.[Br-].[Br-].[Br-] [Compound S7] | -6.69 kcal/mol | 4 µM | 4 µM | 4 µM | 16 µM | 31 µM | 250 µM | -6.21 kcal/mol | 0.382 kcal/mol | 2.0 mM |  |  |  |  |  | 
8 | CCCCCCCCCCCCCCCC[N+](C)(C)Cc1cc(C[N+](C)(C)C)cc(C[N+](C)(C)C)c1.[Br-].[Br-].[Br-] [Compound S5] | -3.35 kcal/mol | 4 µM | 8 µM | 4 µM | 31 µM | 31 µM | >250 µM | -5.26 kcal/mol | -2.03 kcal/mol | 9.2 mM |  |  |  |  |  | 
9 | NC[C@H]1O[C@H](O[C@H]2[C@H](O)[C@@H](O[C@H]3O[C@H](CO)[C@@H](O)[C@H](N)[C@H]3O)[C@H](N)C[C@@H]2N)[C@H](N)C[C@@H]1O [tobramycin] |  |  |  |  |  |  |  |  |  |  |  |  |  |  |  | 6.4 µM (≈ 2.99 µg/mL)
